ChEMBL document CHEMBL6092168, “Identification of novel indolinone derivatives as CTSC inhibitors to treat inflammatory bowel disease by modulating inflammatory factors” (Eur J Med Chem, 2024)
Calls of active or inactive are those of the source. No cut-off for these calls is given here.

How the values were obtained:
Mus musculus [1] = assay: Anti-inflammatory activity in DSS-induced ulcerative colitis male C57BL/6 mouse model assessed as reduction in crypt loss in colon at 60 mg/kg administered via gavage for 10 days by H and E staining based analysis; format: functional, organism-based; details: time 10.0 day
[2] = Acute toxicity in ICR mouse assessed as body weight loss at 1500 mg/kg, po administered daily for 7 days; format: organism-based; details: in vivo, 168 h, time 7 day
Mus musculus [3] = assay: Anti-inflammatory activity in DSS-induced ulcerative colitis male C57BL/6 mouse model assessed as increase in colon length at 60 mg/kg administered via gavage for 10 days; format: functional, organism-based; details: time 10.0 day
[4] = target: T1, Dipeptidyl peptidase 1 (Mus musculus) (UniProt P97821); assay: In vivo inhibition of Cathepsin C in C57BL/6 mouse assessed as reduction in cathepsin C activity in bone marrow at 30 mg/kg, po administered once daily for 6 days by fluorescence based microplate reader relative to control; format: functional, organism-based; details: time 6.0 day
T1 sequence (whole entry): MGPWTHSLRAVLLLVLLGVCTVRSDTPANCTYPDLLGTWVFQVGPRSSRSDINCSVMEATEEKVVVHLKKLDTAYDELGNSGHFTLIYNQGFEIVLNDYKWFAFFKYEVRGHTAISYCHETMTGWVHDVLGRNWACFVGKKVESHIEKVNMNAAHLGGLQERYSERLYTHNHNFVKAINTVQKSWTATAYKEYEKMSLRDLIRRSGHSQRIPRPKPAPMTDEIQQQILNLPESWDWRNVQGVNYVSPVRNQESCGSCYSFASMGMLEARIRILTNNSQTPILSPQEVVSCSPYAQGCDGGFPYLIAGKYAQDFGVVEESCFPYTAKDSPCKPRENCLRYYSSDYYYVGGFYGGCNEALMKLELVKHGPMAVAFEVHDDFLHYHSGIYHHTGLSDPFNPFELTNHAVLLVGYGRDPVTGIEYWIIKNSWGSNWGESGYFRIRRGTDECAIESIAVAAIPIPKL

[5] = target: T2, Cathepsin G (Mus musculus) (UniProt P28293); assay: In vivo inhibition of Cathepsin G in C57BL/6 mouse assessed as reduction in cathepsin G activity in bone marrow at 30 mg/kg, po administered once daily for 6 days by fluorescence based microplate reader relative to control; format: functional, organism-based; details: time 6.0 day
T2 sequence (whole entry): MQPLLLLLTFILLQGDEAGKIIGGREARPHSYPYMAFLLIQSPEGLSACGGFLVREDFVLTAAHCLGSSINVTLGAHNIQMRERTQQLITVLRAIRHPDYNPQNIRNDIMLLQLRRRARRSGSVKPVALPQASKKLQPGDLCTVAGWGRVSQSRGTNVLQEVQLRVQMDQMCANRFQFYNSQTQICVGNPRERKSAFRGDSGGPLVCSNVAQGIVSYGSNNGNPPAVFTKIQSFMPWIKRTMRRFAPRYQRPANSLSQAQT

[6] = target: T3, Myeloblastin (Mus musculus) (UniProt Q61096); assay: In vivo inhibition of proteinase 3 in C57BL/6 mouse assessed as reduction in proteinase 3 activity in bone marrow at 30 mg/kg, po administered once daily for 6 days by fluorescence based microplate reader relative to control; format: functional, organism-based; details: time 6.0 day
T3 sequence (whole entry): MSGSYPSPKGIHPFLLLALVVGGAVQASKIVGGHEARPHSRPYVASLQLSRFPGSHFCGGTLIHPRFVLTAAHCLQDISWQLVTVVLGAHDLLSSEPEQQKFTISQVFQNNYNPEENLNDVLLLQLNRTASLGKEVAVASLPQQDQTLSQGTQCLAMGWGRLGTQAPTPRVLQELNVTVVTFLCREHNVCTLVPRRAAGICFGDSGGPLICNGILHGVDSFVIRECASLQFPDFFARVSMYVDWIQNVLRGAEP

[7] = Acute toxicity in ICR mouse assessed as body weight loss at 500 mg/kg, po administered twice daily for 7 days; format: organism-based; details: in vivo, 168 h, time 7 day
Dipeptidyl peptidase 1 = Dipeptidyl peptidase 1 (Homo sapiens, UniProt P53634); assay: Inhibition of human recombinant Cathepsin C using Gly-Phe-AFC as substrate preincubated for 3 hrs followed by substrate addition and measured after 1 hr by fluorescence based multifunctional microplate reader analysis
Mus musculus [8] = assay: Anti-inflammatory activity in DSS-induced ulcerative colitis male C57BL/6 mouse model assessed as increase in IL-10 expression in serum administered via gavage for 10 days by ELISA; format: functional, organism-based; details: dose 15-60 mg/kg, time 10.0 day
Mus musculus [9] = assay: Anti-inflammatory activity in DSS-induced ulcerative colitis male C57BL/6 mouse model assessed as reduction in Cathepsin C level in serum at 15 to 30 mg/kg administered via gavage for 10 days; format: functional, organism-based; details: dose 15-30 mg/kg, time 10.0 day
Mus musculus [10] = assay: Anti-inflammatory activity in DSS-induced ulcerative colitis male C57BL/6 mouse model assessed as reduction in IL-1 beta expression in serum administered via gavage for 10 days by ELISA; format: functional, organism-based; details: dose 15-60 mg/kg, time 10.0 day
Mus musculus [11] = assay: Anti-inflammatory activity in DSS-induced ulcerative colitis male C57BL/6 mouse model assessed as reduction in proteinase 3 level in serum at 15 to 30 mg/kg administered via gavage for 10 days; format: functional, organism-based; details: dose 15-30 mg/kg, time 10.0 day
[12] = AUC (0 to infinity) in male Sprague-Dawley rat at 10 mg/kg, po measured at 5 to 1440 mins by LC-MS/MS analysis; format: ADME, organism-based; details: in vivo, time 5-1440 min
RAW264.7 = assay: Anti-inflammatory activity in LPS-stimulated mouse RAW264.7 cells assessed as reduction in IL-1 beta production incubated for 24 hrs by ELISA; format: functional, cell-based; details: dose 0.62-5 µM
[13] = target: T4, Neutrophil elastase (Mus musculus) (UniProt Q3UP87); assay: In vivo inhibition of neutrophil elastase in C57BL/6 mouse assessed as reduction in neutrophil elastase activity in blood at 30 mg/kg, po administered once daily for 6 days by fluorescence based microplate reader relative to control; format: functional, organism-based; details: time 6.0 day
T4 sequence (whole entry): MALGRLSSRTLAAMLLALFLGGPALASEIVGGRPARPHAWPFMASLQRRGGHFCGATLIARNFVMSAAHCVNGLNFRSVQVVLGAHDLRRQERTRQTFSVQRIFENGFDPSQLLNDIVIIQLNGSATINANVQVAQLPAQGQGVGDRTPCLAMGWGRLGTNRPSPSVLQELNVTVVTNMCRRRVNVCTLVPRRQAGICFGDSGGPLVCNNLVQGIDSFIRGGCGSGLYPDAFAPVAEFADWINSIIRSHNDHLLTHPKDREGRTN

[14] = MRT in male Sprague-Dawley rat at 10 mg/kg, po measured at 5 to 1440 mins by LC-MS/MS analysis; format: ADME, organism-based; details: in vivo, time 5-1440 min
[15] = target: T4, Neutrophil elastase (Mus musculus); assay: Induction of neutrophil elastase degradation in C57BL/6 mouse bone marrow cells at 10 uM incubated for 24 hrs by Western blot analysis; format: cell-based; details: Bone marrow cell
[16] = target: T3, Myeloblastin (Mus musculus); assay: Induction of proteinase 3 degradation in C57BL/6 mouse bone marrow cells assessed as remaining activity at 10 uM incubated for 12 hrs by Western blot analysis relative to control; format: cell-based; details: Bone marrow cell
Mus musculus [17] = assay: Anti-inflammatory activity in DSS-induced ulcerative colitis male C57BL/6 mouse model assessed as reduction in proteinase 3 level in colon at 15 to 30 mg/kg administered via gavage for 10 days; format: functional, organism-based; details: dose 15-30 mg/kg, time 10.0 day
Mus musculus [18] = assay: Anti-inflammatory activity in DSS-induced ulcerative colitis male C57BL/6 mouse model assessed as reduction in cathepsin G level in serum at 15 to 30 mg/kg administered via gavage for 10 days; format: functional, organism-based; details: dose 15-30 mg/kg, time 10.0 day

Sequence of Dipeptidyl peptidase 1 (P53634 25-134 limits assumed): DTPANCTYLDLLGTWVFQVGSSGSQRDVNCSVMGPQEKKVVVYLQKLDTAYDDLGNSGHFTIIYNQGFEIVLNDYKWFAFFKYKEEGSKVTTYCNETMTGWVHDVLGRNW
Sequence of Dipeptidyl peptidase 1 (P53634 231-394 limits assumed): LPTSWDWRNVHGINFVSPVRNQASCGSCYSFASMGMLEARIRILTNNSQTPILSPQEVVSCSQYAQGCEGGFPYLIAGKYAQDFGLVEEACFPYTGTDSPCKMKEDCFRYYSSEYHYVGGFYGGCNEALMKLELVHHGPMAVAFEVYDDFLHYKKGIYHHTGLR
Sequence of Dipeptidyl peptidase 1 (P53634 395-463 limits assumed): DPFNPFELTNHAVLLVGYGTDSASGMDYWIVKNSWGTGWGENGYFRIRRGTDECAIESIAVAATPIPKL

Q: What does the source list for `O=C1Nc2c(cccc2-c2ccc(NC3CCOCC3)cc2)/C1=C/c1ccnc2ccccc12`?
A: Activity (Mus musculus [1]): Active; Activity [2]: Non-toxic; Activity (Mus musculus [3]): Active; Significantly More Effective Than In Mesalazine Treatment Group; inhibition [4]: 36.5%; inhibition [5]: 55.2%; inhibition [6]: 58.6%; Activity [7]: Non-toxic; IC50 (Dipeptidyl peptidase 1): 84.3 nM; Activity (Mus musculus [8]): Dose-dependent-effect; Significant Increase Observed In High Dose Group; Activity (Mus musculus [9]): inactive; Activity (Mus musculus [10]): Dose-dependent-effect; Significant Reduction Observed In High Dose Group; Activity (Mus musculus [11]): inactive; AUC [12]: 407.54 ng·h/mL; Activity (RAW264.7): Dose-dependent-effect; inhibition [13]: 42.9%; MRT [14]: 2.98 h; Activity [15]: Active; Activity [16]: 75%; Activity (Mus musculus [17]): inactive; Activity (Mus musculus [18]): inactive
